In publication PMC7725785, “TRIB3 promotes MYC-associated lymphoma development through suppression of UBE3B-mediated MYC degradation” (Nature Communications, 2020):
Where a SMILES comes first, the peptide text is derived from it. [ ]: non-standard residue; d: D form.

What was measured:
TRIB3 protein = target: T1, TRIB3 protein (Homo sapiens, UniProt Q96RU7); experiment: SPR kinetic interaction of α-helical peptides (CM1-CM4) with TRIB3; format: binding
T1 construct: GST; purchased Sinobiological Inc. 10731-H09B
T1 sequence (Q96RU7 1-358): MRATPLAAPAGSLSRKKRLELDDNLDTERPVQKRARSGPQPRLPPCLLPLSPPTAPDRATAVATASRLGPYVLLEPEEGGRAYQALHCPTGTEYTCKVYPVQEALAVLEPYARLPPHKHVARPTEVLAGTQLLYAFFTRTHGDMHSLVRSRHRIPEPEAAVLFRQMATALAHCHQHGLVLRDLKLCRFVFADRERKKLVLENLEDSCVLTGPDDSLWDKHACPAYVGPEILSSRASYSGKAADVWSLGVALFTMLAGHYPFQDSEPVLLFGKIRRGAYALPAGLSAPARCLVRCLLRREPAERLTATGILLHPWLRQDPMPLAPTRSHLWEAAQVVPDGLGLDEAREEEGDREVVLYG
Experimental: (§1) Binding kinetics between MYC and UBE3B, TRIB3 and the indicated α helical peptides, MAX and the indicated α helical peptides, or MYC and MAX were analyzed using a BIAcore T200 instrument (GE Healthcare, CA, USA) as described previously. Briefly, binding reactions were performed in HBS-EP buffer (GE Healthcare) at pH 7.4. TRIB3/MYC/MAX protein was coated on the flow cell of a CM5 sensor chip by direct immobilization. Another flow cell, not coated with an immobilized protein, was used to evaluate nonspecific binding. The binding analyses were performed at a flow rate of 25 μl/min at 25 °C. A total of 0–200 nM peptide or 0–500 nM TRIB3 protein was passed over the surface of the sensor chip. The association rate constant (Ka) and the dissociation rate constant (Kd) were calculated according to the BIA evaluation software. The dissociation constant (KD) was determined by Kd/Ka.

MAX protein = experiment: SPR kinetic interaction of α-helical peptides (CM1-CM4) with MAX; format: binding; conditions: result in words
Experimental: as §1

TRIB3 and MYC = experiment: SPR kinetic interaction of TRIB3 and MYC proteins with or without CM4; format: binding; conditions: in vitro, result in words
Experimental: as §1

MAX and MYC = experiment: SPR kinetic interaction of MAX and MYC proteins with indicated peptides (CM1-CM4); format: binding; conditions: result in words
Experimental: as §1

[1] = test system: MYC polyubiquitination by UBE3B; experiment: In vitro ubiquitination assay of MYC (UBE3B, UBCH3); format: biochemical; conditions: result in words
Experimental: In vitro ubiquitination was performed according to the protocol provided with the Ubiquitination Kit (UW9920, BioMol) with some modifications. Briefly, MYC-His, UBE3B-His, UBE3B-(R346Q)-His, UBE3B-(C1036A)-His, and UBE3B-C-His were expressed in free-style 293 cells and purified by a Ni2+-NTA resin (GE). The assays were carried out at 37 °C in a 50-μl reaction mixture containing 20 U/ml inorganic pyrophosphatase (Sigma Aldrich), 5 mM dithiothreitol, 5 mM Mg-ATP, 100 nM E1, […], […], […], and […]. […] To obtain accurate results, the PAGE gel was run for a relatively long time until protein bands smaller than 40 kDa ran off the bottom line of the gel as judged by the protein molecular weight marker. Then, the protein was transferred to a polyvinylidene difluoride membrane (PVDF). To reduce the background noise, an anti-MYC antibody (Cell Signaling Technology, 1:1000) was used to detect MYC polyubiquitination via western blot analysis instead of the HRP-Streptavidin detection system recommended by the kit for the detection of biotinylated ubiquitin.

MYC and UBE3B = experiment: In vitro coimmunoprecipitation of purified MYC, UBE3B and TRIB3 with or without CM4; format: binding; conditions: purified His-MYC, His-UBE3B and GST-TRIB3 with or without CM4; result in words
Experimental: Co-IP experiments were performed as described in the section of immunoprecipitation.

MYC and MAX = experiment: Duolink PLA of MYC and MAX colocalization in Raji cells; format: cell-based, human; conditions: peptide 4 µM 12 hr, MG132 20 μM 6 hr, result in words
Experimental: A total of 1 × 10^6 cells were seeded overnight in a six-well plate. The next day, cells were collected, fixed in 4% paraformaldehyde solution, permeabilized with 0.5% Triton-X100, blocked with Duolink® Blocking Solution, and probed with antibodies directed against MYC (R&D, NB600-302, 1:100), TRIB3 (Novus, H00057761-M03, 1:100), UBE3B (Invitrogen, PA5-59390, 1:100), and MAX (Cell Signaling Technology, #4739, 1:100). The cells were then treated with the Duolink In Situ Red Starter Mouse/Rabbit kit (Sigma Aldrich, DUO92101-1KT) according to the manufacturer’s instructions. Images were captured with an OLYMPUS confocal microscope.

## CC(C)C[C@@H](NC(=O)[C@@H](CCC(N)=O)NC(=O)[C@@H](CCC(=O)O)NC(=O)[C@@H](CC(C)C)NC(=O)[C@@H](CCCCN)NC(=O)[C@@H](Cc1c[nH]cn1)NC(=O)[C@@H](CCCCN)NC(=O)[C@@H](CC(C)C)NC(=O)[C@@H](CCC(N)=O)NC(=O)[C@@H](CCC(=O)O)NC(=O)[C@@H](CCCNC(=N)N)NC(=O)[C@@H](CCCNC(=N)N)NC(=O)[C@H](N)CCCCN)C(=O)N[C@H](CCCNC(=N)N)C(=O)O [CM4] (H-[dK][dR][dR][dE][dQ][dL][dK][dH][dK][dL][dE][dQ][dL][dR]-OH; N-terminus and C-terminus assumed)
TRIB3 protein; BIAcore T200, HBS-EP pH 7.4, 25 °C, printed in Fig. 6a
  Kd: 76.4 nM
TRIB3 protein; BIAcore T200, HBS-EP pH 7.4, 25 °C, printed in Fig. 6a, read-out: ka
  kon: 1.01e+06 M⁻¹ s⁻¹
TRIB3 protein; result in words
  binding affinity for TRIB3: high binding affinity
MAX protein
  ability to bind MAX: not
TRIB3 and MYC
  effect on the binding affinity of TRIB3 and MYC: decreased the binding affinity of TRIB3 and MYC
MAX and MYC
  effect on the binding of MYC and MAX: not
[1]
  polyubiquitination of MYC in vitro: restored the polyubiquitination of MYC
MYC and UBE3B
  binding of MYC and UBE3B in vitro: increased the binding of MYC and UBE3B
MYC and MAX
  colocalization of MYC and MAX in MG132-treated Raji cells: did not affect the colocalization of MYC and MAX
